Holding throughout (assay): Gene expression (quantitative RT-PCR) in TGFβ1-activated hHSC
What all share (format): cell-based, human

Test [1] concerns αSMA gene expression in hHSC. The settings on record: 10 μM; TGFβ1 1 ng/mL, 24 hours, serum free. Here is the method:
(§1) The human primary hepatic stellate cells (hHSC) (ScienCell) were cultured under standard conditions, as described above. For experiments to determine gene expression patterns, hHSC were plated at a density of 1.4×10^5 cells/well into 12-well plates and were cultured overnight. Next day, culture medium was removed, cells were washed with PBS (Invitrogen cat #14190) and serum-free and SteCGS-free medium was added for an additional 16 hours. Cells were treated with compounds in addition to TGFβ1 (1 ng/mL) in a serum-free and SteCGS-free medium for 24 hours.
(§2) Total RNA was isolated using RNeasy® Mini Kit (Qiagen) following manufacturer's instructions. 250 ng of total RNA were reverse transcribed in cDNA using M-MLV RT (Moloney Murine Leukemia Virus Reverse Transcriptase) (Invitrogen cat #28025) in presence of RT buffer 1× (Invitrogen), 1 mM DTT (Invitrogen), 0.18 mM dNTPs (Promega), 200 ng pdN6 (Amersham) and 30 U of RNase inhibitor (Promega).
(§3) Quantitative PCR was then carried out using the MyiQ Single-Color Real-Time PCR Detection or the iCycler iQ Multiplex Real-Time PCR Detection System (both systems from Biorad). Briefly, PCR reactions were performed in 96 Well plates on 5 μL of 5× diluted reverse transcription mix using the iQ SYBR Green Supermix kit. The experimental conditions were: 25 μL of volume reaction, 3 mM of MgCl2, and 0.5 μL each of reverse and forward primers (10 pMol).
(§4) Expression levels were normalized using the expression of 36B4 gene as reference.
(§5) For each gene, the standard curves were drawn by selecting the best points (at least three points) in order to have PCR reaction efficiency close to 100% and a correlation coefficient close to 1. Expression levels were determined using the standard curve equation for both the housekeeping gene and the target gene (taking into account the specific PCR efficiency of each target gene).
(§6) The induction factor vs TGFβ1 was determined as follow: […]
(§7) Thus, lower the induction factor is more the compound of interest inhibits the TGFβ1 activation of hHSC. Experimental results were expressed as mean±standard deviation (SD) of the induction factor.
(§8) The expression of both profibrotic and cancer associated genes was induced in the primary human hepatic stellate cells (hHSCs) by the treatment with the TGFβ1 (1 ng/mL) in serum free conditions. […] The expression of the genes of interest in both treated and untreated hHSCs was determined by the quantitative RT-PCR technique, following 24 hours of exposure to the TGFβ1.
(§9) Experimental results were expressed as Emax values that indicate the maximum inhibition, which was obtained at the concentration of 10 μmole/L. Statistical analyses were performed using an one-way ANOVA followed by Bonferroni post-hoc tests, using Sigma Plot 11.0 software.

For test [2], the system named is HGFR gene expression in hHSC. The settings on record: 10 μM; TGFβ1 1 ng/mL, 24 hours, serum free. As to the method:
as §1, §2, §3, §4, §5, §6, §7, §8, §9

For test [3], the system named is Col4α1 gene expression in hHSC. The settings on record: 10 μM; TGFβ1 1 ng/mL, 24 hours, serum free. As to the method:
as §1, §2, §3, §4, §5, §6, §7, §8, §9

Test [4] concerns VEGFR1 gene expression in hHSC. The following applies: 10 μM; TGFβ1 1 ng/mL, 24 hours, serum free. As to the method: as §1, §2, §3, §4, §5, §6, §7, §8, §9
Test [5] relates to TGFβR1 gene expression in hHSC. The settings on record: 10 μM; TGFβ1 1 ng/mL, 24 hours, serum free. Here is the method: (§10) The human primary hepatic stellate cells (hHSC) (ScienCell) were cultured under standard conditions, as described above. For experiments to determine gene expression patterns, hHSC were plated at a density of 1.4×10^5 cells/well into 12-well plates and were cultured overnight. […] Cells were treated with compounds in addition to TGFβ1 (1 ng/mL) in a serum-free and SteCGS-free medium for 24 hours.
(§11) Total RNA was isolated using RNeasy® Mini Kit (Qiagen) following manufacturer's instructions.
as §3, §4
(§12) Expression levels were determined using the standard curve equation for both the housekeeping gene and the target gene (taking into account the specific PCR efficiency of each target gene).
as §6

In test [6] the test system is FGFR1 gene expression in hHSC. The following applies: 3 μM; TGFβ1 1 ng/mL, 24 hours, serum free. Here is the method:
as §10, §11, §3, §4, §12, §6

For test [7], the system named is Col1α1 gene expression in hHSC. The settings on record: 3 μM; TGFβ1 1 ng/mL, 24 hours, serum free. As to the method: as §1
Total RNA was isolated using RNeasy® Mini Kit (Qiagen) following manufacturer's instructions. […]
Quantitative PCR was then carried out using the MyiQ Single-Color Real-Time PCR Detection or the iCycler iQ Multiplex Real-Time PCR Detection System (both systems from Biorad). […]
as §5, §6

As for `CNC(=O)c1cc(Oc2ccc(NC(=O)Nc3ccc(Cl)c(C(F)(F)F)c3)cc2)ccn1` [Sorafenib], the “Emax, reduction in αSMA gene expression vs hHSC treated with TGFβ1 alone” value in test [1] is reported as −95%. Moreover, the “Emax, reduction in HGFR gene expression vs hHSC treated with TGFβ1 alone” value in test [2] is given as −79%. For the same compound, in test [3], the “Emax, reduction in Col4α1 gene expression vs hHSC treated with TGFβ1 alone” value was −93%. Also, in test [4], the “Emax, reduction in VEGFR1 gene expression vs hHSC treated with TGFβ1 alone” value is given as −95%. In addition, the “Emax, reduction in TGFβR1 gene expression vs hHSC treated with TGFβ1 alone” value in test [5] is recorded as −80%. Besides, the “Emax, reduction in FGFR1 gene expression vs hHSC treated with TGFβ1 alone” value in test [6] is −43%. In test [7], the “Emax, reduction in Col1α1 gene expression vs hHSC treated with TGFβ1 alone” value is reported as −93%.

The record behind these values is patent US10792277B2, “Methods of treatment of fibrosis and cancers” (GENFIT, priority 2013, dated 2020).
